In ChEMBL document CHEMBL1201862, “PubChem BioAssay data set” (2004):
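Values below derive from 48-hour exposures of cells grown in 96-well plates, with endpoints linearly interpolated between the two concentrations bracketing the appropriate inhibition level. Abbreviation: GI50, concentration required for 50% inhibition of growth.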 Active and inactive are the calls of the source. Cut-off read from the data, not from the text of the source: active = GI50 up to about 1.1 µM and inactive = higher.

Experiments:
Experiment in all cases: NCI tumour cell line growth inhibition, 48 h
Malme-3M = test system: Malme-3M
DMS-114 = test system: DMS-114
KM-20L2 = test system: KM-20L2
OVCAR-3 = test system: OVCAR-3
CAKI-1 = test system: CAKI-1
HOP-18 = test system: HOP-18
NCI-H23 = test system: NCI-H23
SK-OV-3 = test system: SK-OV-3
KM12 = test system: KM12
M14 = test system: M14
SW-620 = test system: SW-620
TK-10 = test system: TK-10
OVCAR-8 = test system: OVCAR-8
U-251 = test system: U-251
HOP-62 = test system: HOP-62
COLO 205 = test system: COLO 205
RPMI-8226 = test system: RPMI-8226
SNB-75 = test system: SNB-75
EKVX = test system: EKVX
OVCAR-5 = test system: OVCAR-5
IGROV-1 = test system: IGROV-1
XF498 = test system: XF498
SF-295 = test system: SF-295
DLD-1 = test system: DLD-1
HCT-116 = test system: HCT-116
SN12C = test system: SN12C
HCC 2998 = test system: HCC 2998
RXF 393 = test system: RXF 393
SNB-78 = test system: SNB-78
HT-29 = test system: HT-29
UACC-257 = test system: UACC-257
LXFL 529 = test system: LXFL 529
LOX IMVI = test system: LOX IMVI
A498 = test system: A498
786-0 = test system: 786-0
DMS-273 = test system: DMS-273
UO-31 = test system: UO-31
SNB-19 = test system: SNB-19
SF-539 = test system: SF-539
ACHN = test system: ACHN
SK-MEL-2 = test system: SK-MEL-2
HCT-15 = test system: HCT-15
NCI-H460 = test system: NCI-H460
A549 = test system: A549
NCI-H226 = test system: NCI-H226
OVCAR-4 = test system: OVCAR-4
HOP-92 = test system: HOP-92
UACC-62 = test system: UACC-62
M19-MEL = test system: M19-MEL
SF-268 = test system: SF-268
SK-MEL-28 = test system: SK-MEL-28
HL-60 = test system: HL-60
CCRF-CEM = test system: CCRF-CEM
K562 = test system: K562
MOLT-4 = test system: MOLT-4
SK-MEL-5 = test system: SK-MEL-5
NCI-H522 = test system: NCI-H522
SR = test system: SR

CCOc1ccccc1N1C(=O)C(=O)C(c2nc3ccccc3s2)C(=O)C1=O
GI50 (Malme-3M): 33.8 µM (inactive) | GI50 (DMS-114): > 100 µM (inactive) | GI50 (KM-20L2): > 100 µM (inactive) | GI50 (OVCAR-3): 17.4 µM (inactive) | GI50 (CAKI-1): 38.5 µM (inactive) | GI50 (HOP-18): 8.22 µM (inactive) | GI50 (NCI-H23): > 100 µM (inactive) | GI50 (SK-OV-3): 30.9 µM (inactive) | GI50 (KM12): 98.2 µM (inactive) | GI50 (M14): > 100 µM (inactive) | GI50 (SW-620): 58.9 µM (inactive) | GI50 (TK-10): 24.5 µM (inactive) | GI50 (OVCAR-8): 41.5 µM (inactive) | GI50 (U-251): 49.3 µM (inactive) | GI50 (HOP-62): 46.8 µM (inactive) | GI50 (COLO 205): > 100 µM (inactive) | GI50 (RPMI-8226): > 100 µM (inactive) | GI50 (SNB-75): 23.8 µM (inactive) | GI50 (EKVX): > 100 µM (inactive) | GI50 (OVCAR-5): > 100 µM (inactive) | GI50 (IGROV-1): 19.3 µM (inactive) | GI50 (XF498): > 100 µM (inactive) | GI50 (SF-295): 41.7 µM (inactive) | GI50 (DLD-1): > 100 µM (inactive) | GI50 (HCT-116): 35.8 µM (inactive) | GI50 (SN12C): 79.4 µM (inactive) | GI50 (HCC 2998): > 100 µM (inactive) | GI50 (RXF 393): > 100 µM (inactive) | GI50 (SNB-78): > 100 µM (inactive) | GI50 (HT-29): 39.8 µM (inactive) | GI50 (UACC-257): > 100 µM (inactive) | GI50 (LXFL 529): 35.5 µM (inactive) | GI50 (LOX IMVI): 55.5 µM (inactive) | GI50 (A498): 16.6 µM (inactive) | GI50 (786-0): 5.36 µM (inactive) | GI50 (DMS-273): > 100 µM (inactive) | GI50 (UO-31): 34.7 µM (inactive) | GI50 (SNB-19): 56.5 µM (inactive) | GI50 (SF-539): > 100 µM (inactive) | GI50 (ACHN): 5.86 µM (inactive) | GI50 (SK-MEL-2): > 100 µM (inactive) | GI50 (HCT-15): 76.9 µM | GI50 (NCI-H460): 26.4 µM (inactive) | GI50 (A549): 20 µM (inactive) | GI50 (NCI-H226): 69.5 µM (inactive) | GI50 (OVCAR-4): 3.48 µM (inactive) | GI50 (HOP-92): 36.2 µM (inactive) | GI50 (UACC-62): > 100 µM (inactive) | GI50 (M19-MEL): 69.5 µM (inactive) | GI50 (SF-268): 82.6 µM (inactive) | GI50 (SK-MEL-28): > 100 µM (inactive)

Cc1cc(C)c(C2=NO[C@@H]3C(=O)N(c4ccc(Cc5ccc(N6C(=O)[C@H]7C(c8c(C)cc(C)cc8C)=NO[C@H]7C6=O)cc5)cc4)C(=O)[C@H]23)c(C)c1
GI50 (HL-60): > 100 µM (inactive) | GI50 (Malme-3M): > 100 µM (inactive) | GI50 (DMS-114): > 100 µM (inactive) | GI50 (KM-20L2): > 100 µM (inactive) | GI50 (OVCAR-3): > 100 µM (inactive) | GI50 (CAKI-1): > 100 µM (inactive) | GI50 (HOP-18): > 100 µM (inactive) | GI50 (NCI-H23): > 100 µM (inactive) | GI50 (SK-OV-3): > 100 µM (inactive) | GI50 (KM12): > 100 µM (inactive) | GI50 (M14): 64.4 µM (inactive) | GI50 (SW-620): > 100 µM (inactive) | GI50 (TK-10): > 100 µM (inactive) | GI50 (OVCAR-8): > 100 µM (inactive) | GI50 (HOP-62): > 100 µM (inactive) | GI50 (COLO 205): > 100 µM (inactive) | GI50 (RPMI-8226): > 100 µM (inactive) | GI50 (SNB-75): > 100 µM (inactive) | GI50 (EKVX): > 100 µM (inactive) | GI50 (OVCAR-5): > 100 µM (inactive) | GI50 (IGROV-1): > 100 µM (inactive) | GI50 (XF498): > 100 µM (inactive) | GI50 (SF-295): > 100 µM (inactive) | GI50 (DLD-1): > 100 µM (inactive) | GI50 (CCRF-CEM): > 100 µM (inactive) | GI50 (SN12C): > 100 µM (inactive) | GI50 (HCC 2998): > 100 µM (inactive) | GI50 (RXF 393): > 100 µM (inactive) | GI50 (SNB-78): > 100 µM (inactive) | GI50 (HT-29): > 100 µM (inactive) | GI50 (UACC-257): 68.4 µM (inactive) | GI50 (LXFL 529): > 100 µM (inactive) | GI50 (LOX IMVI): > 100 µM (inactive) | GI50 (A498): > 100 µM (inactive) | GI50 (K562): > 100 µM (inactive) | GI50 (786-0): > 100 µM (inactive) | GI50 (DMS-273): > 100 µM (inactive) | GI50 (UO-31): > 100 µM (inactive) | GI50 (SF-539): > 100 µM (inactive) | GI50 (MOLT-4): > 100 µM (inactive) | GI50 (SK-MEL-2): > 100 µM (inactive) | GI50 (HCT-15): > 100 µM | GI50 (A549): > 100 µM (inactive) | GI50 (NCI-H226): > 100 µM (inactive) | GI50 (OVCAR-4): > 100 µM (inactive) | GI50 (HOP-92): > 100 µM (inactive) | GI50 (UACC-62): > 100 µM (inactive) | GI50 (SK-MEL-5): > 100 µM (inactive) | GI50 (M19-MEL): > 100 µM (inactive) | GI50 (SF-268): > 100 µM (inactive) | GI50 (SK-MEL-28): > 100 µM (inactive)

N#Cc1cc([N+](=O)[O-])ccc1NC(=O)C(F)(F)F
GI50 (NCI-H522): > 58.5 µM (inactive) | GI50 (HL-60): > 57.1 µM (inactive) | GI50 (Malme-3M): > 100 µM (inactive) | GI50 (DMS-114): > 40.8 µM (inactive) | GI50 (KM-20L2): > 74.5 µM (inactive) | GI50 (OVCAR-3): > 100 µM (inactive) | GI50 (CAKI-1): > 100 µM (inactive) | GI50 (HOP-18): > 85.9 µM (inactive) | GI50 (NCI-H23): > 100 µM (inactive) | GI50 (SK-OV-3): > 100 µM (inactive) | GI50 (KM12): > 100 µM (inactive) | GI50 (M14): > 100 µM (inactive) | GI50 (SR): > 100 µM (inactive) | GI50 (SW-620): > 40.9 µM (inactive) | GI50 (TK-10): > 100 µM (inactive) | GI50 (OVCAR-8): > 84.3 µM (inactive) | GI50 (U-251): > 100 µM (inactive) | GI50 (HOP-62): > 100 µM (inactive) | GI50 (COLO 205): 20.7 µM (inactive) | GI50 (RPMI-8226): > 45.8 µM (inactive) | GI50 (SNB-75): > 49.7 µM (inactive) | GI50 (EKVX): > 100 µM (inactive) | GI50 (OVCAR-5): > 100 µM (inactive) | GI50 (IGROV-1): > 100 µM (inactive) | GI50 (XF498): > 100 µM (inactive) | GI50 (SF-295): > 100 µM (inactive) | GI50 (DLD-1): > 58.9 µM (inactive) | GI50 (CCRF-CEM): > 84.7 µM (inactive) | GI50 (HCT-116): > 42.9 µM (inactive) | GI50 (SN12C): > 100 µM (inactive) | GI50 (HCC 2998): > 100 µM (inactive) | GI50 (RXF 393): > 56.6 µM (inactive) | GI50 (SNB-78): > 100 µM (inactive) | GI50 (HT-29): > 45.5 µM (inactive) | GI50 (UACC-257): > 100 µM (inactive) | GI50 (LXFL 529): > 100 µM (inactive) | GI50 (LOX IMVI): > 34.7 µM (inactive) | GI50 (A498): > 100 µM (inactive) | GI50 (K562): > 60.5 µM (inactive) | GI50 (786-0): > 49.7 µM (inactive) | GI50 (DMS-273): > 100 µM (inactive) | GI50 (UO-31): > 100 µM (inactive) | GI50 (SNB-19): > 100 µM (inactive) | GI50 (SF-539): > 100 µM (inactive) | GI50 (ACHN): > 100 µM (inactive) | GI50 (MOLT-4): > 100 µM (inactive) | GI50 (SK-MEL-2): > 100 µM (inactive) | GI50 (HCT-15): > 41.4 µM | GI50 (NCI-H460): > 42.3 µM (inactive) | GI50 (A549): > 74.3 µM (inactive) | GI50 (NCI-H226): > 88.7 µM (inactive) | GI50 (OVCAR-4): > 100 µM (inactive) | GI50 (HOP-92): 58.7 µM (inactive) | GI50 (UACC-62): > 100 µM (inactive) | GI50 (SK-MEL-5): > 100 µM (inactive) | GI50 (M19-MEL): > 100 µM (inactive) | GI50 (SF-268): > 100 µM (inactive) | GI50 (SK-MEL-28): > 100 µM (inactive)
